{
  "source": "patent US6358736B1",
  "about": "“Method for increasing the antigen presenting ability of leukemia cells” (The United States of America as represented by the …, priority 1995, dated 2002)",
  "key": {"[1]": {"system": "human peripheral blood monocytes", "assay": "FACS analysis of cell surface markers on cultured peripheral blood monocytes", "type": "cell-based"}, "HL-60 cells": {"system": "HL-60 cells", "assay": "FACS analysis of cell surface markers on HL-60 cells", "type": "cell-based, human", "protocol": "Calcium was removed from cultured cells by two methods.\nThe second method involved washing the cells extensively in calcium-free RPMI medium, and culturing them in the same calcium-free medium supplemented with serum that had been dialyzed against calcium-free phosphate-buffered saline.\nThe calmodulin kinase inhibitors KN-62 (20 uM) or KT-5926 (1 uM) was added to HL-60 cells in the presence of 188 ng/ml A23187. Twenty four hours later the level of CD80 was analyzed.\nThapsigargin was added to cultured human peripheral blood monocytes and HL-60 cells in concentrations ranging from 0 to 1000 nM. Cells were harvested 24 hours later and evaluated for the acquisition of ADC immunophenotypic characteristics by FACS analysis.\nCells were harvested after three days, irradiated (3000R), then FACS analyzed or cocultured in graded numbers with freshly prepared naive (CD45RO negative) T lymphocytes. Allosensitization was assessed by pulsing at day 4 with ^3H-TdR and harvesting 18 hours later."}, "[2]": {"system": "HL-60 cells cocultured with allogeneic naive T cells", "assay": "T cell allosensitization by irradiated treated HL-60 cells (3H-TdR)", "type": "cell-based, human", "settings": "A23187 180 ng/ml with or without rhGM-CSF 20 ng/ml and IFN-gamma 1000 u/ml, three days", "method": "Fresh allogeneic naive (CD45R0 negative) T cells were prepared and cocultured with graded numbers of irradiated (3000R) HL-60 cells treated under the above-described conditions. Four days later the cultures were pulsed with ^3H-TdR (tritiated thymidine) and harvested 18 hours later."}, "[3]": {"system": "monocyte subpopulation within PBMC", "assay": "FACS analysis of monocyte subpopulation in unfractionated PBMC", "type": "cell-based, human", "settings": "A23187 750 ng/ml, 40 hours", "protocol": "(§1) PBMC were prepared by leukapheresis and Ficoll-Hypaque and placed in culture. Since the cells were never elutriated and no adherence step was performed, these cultures deliberately included large numbers of T, B, and NK lymphocytes as well as monocytes. The medium was our standard RPMI 10% human AB serum with antibiotics including amphotericin B. Cells were either untreated or treated for 40 hours with calcium ionophore A23187 750 ng/ml. Cells were then harvested and analyzed by FACS. Cells were stained with FITC conjugated anti-CD3, anti-CD40, anti-CD57, anti-CD 14, or the combination; in addition cells were stained with PE conjugated control antibodies, anti-B7.1, anti-B7.2, etc. In this way the effect of calcium ionophore treatment on each parameter could be clearly delineated."}, "[4]": {"system": "T lymphocyte subpopulation within the PBMC", "assay": "FACS analysis of T lymphocyte subpopulation in unfractionated PBMC", "type": "cell-based, human", "settings": "A23187 750 mg/ml, 40 hours", "protocol": "as §1, with “cultures” for “cultures deliberately”, “[…].” for “ng/ml.”, “anti-CD14,” for “anti-CD 14,”"}, "[5]": {"system": "B cell subpopulation within the PBMC", "assay": "FACS analysis of B cell subpopulation in unfractionated PBMC", "type": "cell-based, human", "settings": "A23187 750 mg/ml, 40 hours", "protocol": "as §1, with “cultures” for “cultures deliberately”, “[…].” for “ng/ml.”, “anti-CD14,” for “anti-CD 14,”"}, "[6]": {"system": "NK subpopulation within the PBMC", "assay": "FACS analysis of NK subpopulation in unfractionated PBMC", "type": "cell-based, human", "settings": "A23187 750 mg/ml, 40 hours", "protocol": "as §1, with “cultures” for “cultures deliberately”, “[…].” for “ng/ml.”, “anti-CD14,” for “anti-CD 14,”"}, "[7]": {"system": "adherence-enriched monocytes", "assay": "FACS analysis of monocytes enriched by Ficoll separation and adherence", "type": "cell-based, human", "settings": "A23187 750 ng/ml, 20 hours", "protocol": "Blood was drawn in heparinized syringes (approximately 80 cc), diluted 1:1 with normal saline, layered on Ficoll-Hypaque, and centrifuged for 20 minutes to remove neutrophils and red blood cells. The peripheral blood mononuclear cell (PBMC) containing interface were washed, counted, and added to 24 well plates, 2 cc culture medium per well, 2×10^7 cells per well.\nAfter 60 minutes the non adherent cells were removed, leaving a half confluent surface of adherent cells in each well (i.e., monocyte enrichment by adherence) Wells were either untreated or treated with calcium ionophore A23 187 750 ng/ml, and harvested 20 hours later."}, "[8]": {"system": "bone marrow-derived CD34pos cells", "assay": "FACS and morphologic analysis of cultured bone marrow-derived CD34pos cells", "type": "cell-based, human", "protocol": "Bone marrow-derived highly purified CD34^pos cells were cultured for six days in medium containing 20% fetal calf serum, rhSCF, rhGM-CSF, and rhTNF-alpha. […] Cells were centrifuged and replated in 24 well plates in fresh medium containing rhGM-CSF, and rhTNF-alpha but not rhSCF. In addition, individual wells were treated with varied doses of ionophore A23187. Wells were harvested 1, 2, and 6 days subsequently, subjected to FACS analysis or studied morphologically for DC characteristics utilizing polylysine-coated glass slides and Nomarski optics."}, "WEHI-3": {"system": "WEHI-3", "assay": "Costimulatory molecule expression on mouse myeloid leukemia line", "type": "cell-based", "settings": "following calcium mobilization", "description": "Myeloid leukemia cell lines display marked upregulation of molecules linked to antigen-presentation and acquire increased T cell sensitizing capacity following calcium mobilization with either calcium ionophore or thapsigargin."}, "[9]": {"settings": "as E78, vs expression prior to culture"}, "[10]": {"settings": "calcium-free RPMI and dialyzed serum"}, "[11]": {"settings": "within 18 hours of treatment initiation"}},
  "data": [
    {"smiles": "CNc1ccc2oc(C[C@H]3O[C@@]4(CC[C@H]3C)O[C@H]([C@H](C)C(=O)c3ccc[nH]3)[C@H](C)C[C@H]4C)nc2c1C(=O)O", "note": "[A23187]", "values": [
      {"measurement": "optimal concentration for DC differentiation of monocytes", "setting": "[1]; 10% FCS", "value": "180 to 375", "unit": "ng/mL"},
      {"measurement": "CD14 expression downregulated", "setting": "[1]; 20 hours, 10% AB serum, amphotericin B omitted, low endotoxin, A23187 750 ng/ml or cytokines (rhIL4 1000 u/ml; +rhGM-CSF 100 ng/ml; +rhTNF-alpha 100 u/ml)", "value": 90, "unit": "%"},
      {"measurement": "surface marker expression in purified monocyte and DC cultures", "setting": "[1]; A23187 750 ng/ml, 40 hours", "value": "upregulation of B7.1, B7.2, ICAM-1., HLA-DR, HLA-ABC, CD40, and CD83"},
      {"measurement": "surface marker expression of purified (>98%) CD14pos monocytes vs prepurified fractions", "setting": "[1]; A23187 750 ng/ml, 40 hours", "value": "downregulated CD14, and upregulated B7.1, B7.2, ICAM-1, HLA-DR, HLA-ABC, CD40 and CD83 equivalently"},
      {"measurement": "activation and dendritic cell phenotypic conversion of pooled monocyte plus DC fractions", "setting": "[1]; added at the beginning of a 24-48 hr culture period", "value": "uniform activation and dendritic cell phenotypic conversion"},
      {"measurement": "B7.1 expression increase", "setting": "[1]; [9]", "value": 14, "unit": "fold"},
      {"measurement": "B7.2 expression increase", "setting": "[1]; [9]", "value": 7.5, "unit": "fold"},
      {"measurement": "CD83 expression increase", "setting": "[1]; [9]", "value": 8.7, "unit": "fold"},
      {"measurement": "HLA-ABC expression increase", "setting": "[1]; [9]", "value": 3.0, "unit": "fold"},
      {"measurement": "HLA-DQ expression increase", "setting": "[1]; [9]", "value": 3.4, "unit": "fold"},
      {"measurement": "HLA-DR increase", "setting": "[1]; [9]", "value": 2.9, "unit": "fold"},
      {"measurement": "suppression of ionophore-induced B7.1 upregulation", "setting": "[1]; [10]", "value": 100, "unit": "%"},
      {"measurement": "suppression of ionophore-induced CD14 downregulation", "setting": "[1]; [10]", "value": 53, "unit": "%"},
      {"measurement": "optimal concentration for DC differentiation of monocytes", "setting": "[1]; media with 5% AB serum", "value": "375 to 750", "unit": "ng/mL"},
      {"measurement": "CD40 expression", "setting": "[1]; more uniform by 40 hours of treatment", "value": "Modest upregulation of CD40"},
      {"measurement": "optimal concentration for DC differentiation of monocytes", "setting": "[1]; serum free media", "value": "45 to 90", "unit": "ng/mL"},
      {"measurement": "morphology by electron microscopy", "setting": "[1]; within 20-40 hours of treatment", "value": "markedly increased endoplasmic reticulum, lysosomal and Golgi content"},
      {"measurement": "B7.1 (CD80) expression", "setting": "[1]; [11]", "value": "Variable levels of de novo expression of B7.1 (CD80)"},
      {"measurement": "B7.2 (CD86) expression", "setting": "[1]; [11]", "value": "marked upregulation of B7.2 (CD86)"},
      {"measurement": "CD83 expression", "setting": "[1]; [11]", "value": "de novo and essentially uniform expression"},
      {"measurement": "cell surface CD14 expression", "setting": "[1]; [11]", "value": "marked downregulation of cell surface CD14"},
      {"measurement": "costimulatory molecule expression", "setting": "HL-60 cells; A23187 180 ng/ml, three days", "value": "marked upregulation of costimulatory molecules B7.1, B7.2, and ICAM-1"},
      {"measurement": "HLA-DR expression", "setting": "HL-60 cells; agent alone", "value": "not induced"},
      {"measurement": "ablation of ionophore-induced upregulation of CD80 and CD86", "setting": "HL-60 cells; [10]", "value": "~100", "unit": "%"},
      {"measurement": "allostimulation of naive T cells", "setting": "[2]", "value": "significantly allostimulatory"},
      {"measurement": "CD14 expression", "setting": "[3]", "value": "downregulation of CD14 to a background level"},
      {"measurement": "increase of B7.1 expression", "setting": "[3]", "value": "seven"},
      {"measurement": "increase of B7.2 expression", "setting": "[3]", "value": 10, "unit": "fold"},
      {"measurement": "increase of CD40 expression", "setting": "[3]", "value": 7, "unit": "fold"},
      {"measurement": "increase of CD83 expression", "setting": "[3]", "value": 11, "unit": "fold"},
      {"measurement": "increase of HLA-DR expression", "setting": "[3]", "value": 9, "unit": "fold"},
      {"measurement": "increase of ICAM-1 expression", "setting": "[3]", "value": 4.5, "unit": "fold"},
      {"measurement": "B7.2 upregulation over culture without ionophore", "setting": "[4]", "value": 10, "unit": "fold"},
      {"measurement": "CD40 upregulation", "setting": "[4]", "value": 4, "unit": "fold"},
      {"measurement": "HLA-DR upregulation", "setting": "[4]", "value": 6, "unit": "fold"},
      {"measurement": "ICAM-1 upregulation", "setting": "[4]", "value": 3.3, "unit": "fold"},
      {"measurement": "B7.1 and B7.2 expression", "setting": "[5]", "value": "a subpopulation of B cells developed marked B71 and B72 expression"},
      {"measurement": "upregulation of surface markers", "setting": "[6]", "value": "negligible upregulation of surface markers"},
      {"measurement": "B7.1 and CD83 expression", "setting": "[7]", "value": "de novo B7.1 and CD83 expression"},
      {"measurement": "B7.2, HLA-DR and CD40 expression", "setting": "[7]", "value": "upregulated B72, HLA-DR, and CD40 expression"},
      {"measurement": "CD14 expression", "setting": "[7]", "value": "uniform CD14 downregulation"},
      {"measurement": "increase in purity of cells with activated myeloid dendritic cell phenotype at final harvest", "setting": "[8]", "value": "approximately six"},
      {"measurement": "CD14 expression", "setting": "[8]; 375-750 ng/ml, within 20 hours", "value": "marked CD14 downregulation"},
      {"measurement": "cells with marked upregulation of B7.1, B7.2, ICAM-1, CD83, CD40 and CD1a", "setting": "[8]; 375-750 ng/ml, within 20 hours", "value": "> 85 % of cells"},
      {"measurement": "increase in yield of cells with activated myeloid dendritic cell phenotype vs wells without ionophore", "setting": "[8]; absolute numbers of cells recovered", "value": "approximately three"},
      {"measurement": "optimal concentration for dendritic cell immunophenotype", "setting": "[8]; within 20 hours of treatment", "value": "375 to 750", "unit": "ng/mL"},
      {"measurement": "morphology", "setting": "[8]; within 40 hours of treatment", "value": "virtually all cells manifested dendritiform morphology"},
      {"measurement": "costimulatory molecule expression", "setting": "WEHI-3", "value": "markedly increased costimulatory molecule expression"}
    ]}
  ]
}
